According to a melting point compilation (Tetko et al.; mined from patent text by program, amines drawn as free bases though some values may be those of a salt):

| SMILES | melting point |
| --- | --- |
| O=C(Cn1c(-c2ccc(Cl)cc2)nc2cccnc21)NCc1ccccc1 | 200 °C |
| CC(C)[C@H](NC(=O)OC(C)(C)C)C(=O)Nc1c(C(=O)CC(=O)Nc2nccs2)cccc1C(F)(F)F | 120 °C |
| Nc1ccc(Oc2ccc3sncc3c2)cc1 | 100 °C |
| CCNC(=O)N1c2ccccc2CCC1CN1CCN(c2cccc3[nH]ccc23)CC1 (centres undefined) | 109 to 112 °C |
| Cc1ccc(C(=O)NC(NC(=S)Nc2ccccc2F)C(F)(F)F)cc1 (centres undefined) | 197 to 198 °C |
| COC(=O)c1ccc2[nH]cc(C3=CCN(C)CC3)c2c1 | 202 to 204 °C |
| Cc1[nH]c2ccccc2c1C1=C(c2c(C)[nH]c3ccccc23)C(=O)NC1=O | 311 to 313 °C |
| CCCNC(=S)Nc1ccc(Oc2nc(OC)cc(OC)n2)c(C(=O)OC)n1 | 218 to 220 °C |
| Cc1oc(-c2ccccc2)nc1COc1ccccc1COc1cccc(CC(=O)O)c1 | 104 to 105 °C |
| CCCc1c(OCC(O)COc2ccc3ccc(C(=O)O)cc3c2CCC)ccc(C(C)=O)c1O (centres undefined) | 125 to 126 °C |
| CC(C)N(CCN1C(=O)C(=O)c2cc(F)ccc21)C(C)C | 100 to 102 °C |
| Cc1cc(-n2ccnc2)c2cccc(OCc3c(Cl)ccc(S(=O)(=O)N4CCC[C@H]4C(=O)N4CCN(c5ccccn5)CC4)c3Cl)c2n1 | 108 °C |
| Nc1c(Cl)cc(C(O)CNCCCCCCOCCCc2ccc(CO)cc2)cc1Cl (centres undefined) | 56 to 59 °C |
| O=C(Nc1ccc(Cl)nc1)N1CC2(c3ccc(Cl)cc3)COc3cc(Cl)ccc3C2=N1 (centres undefined) | > 250 °C |
| CC1(C)CC(=O)N(c2ccc(OC(=O)N3CCc4ccccc4C3)nc2)C(=O)C1 | 156 to 158 °C |
| CCOC(=O)c1cnn(-c2ccc(Oc3ccc(C)cc3O)cc2)c1 | 122 to 123 °C |
| CCCCCCCCCCCCCC[C@@H]1CO[C@@H](CO)C1 (relative stereo) | 27.1 to 27.7 °C |
| COc1ccccc1Oc1c(NS(=O)(=O)c2ccc(C(C)(C)C)cc2)nc(-c2ncccn2)nc1OCCOc1ccc(C(C)O)cc1 (centres undefined) | 191 to 194 °C |
| COc1ccc2c(c1)C(C)(C)Oc1c-2ccc(O)c1C(C)=O | 103 to 104 °C |
| NC(=S)Nc1c(Cl)cccc1Cl | 158 to 160 °C |
| COC(=O)C1=CCC2C(CCC3C(C)(C)CCCC23C)C(=O)C1 (centres undefined) | 93 to 94 °C |
| CCCCCCCCOc1cc2cc(CO)c(CO)c(-c3ccnc(Cl)c3)c2cc1OC | 98 to 102 °C |
| C#Cc1sc(C2=NOC(c3cc(Cl)cc(Cl)c3)(C(F)(F)F)C2)cc1C (centres undefined) | 105 to 107 °C |
| CC(/C=C/CC(C)c1cc(C(C)(C)C)cc(C(C)(C)C)c1)=C\C(=O)O (centres undefined) | 127 to 128 °C |
| COc1ccc2c(c1)c(CC(=O)O)c(C)n2-c1nc(SC)nc2ccccc12 | 175 to 178 °C |

| SMILES | melting point |
| --- | --- |
| CCCc1c(OCC(=N)OCC)ccc(C(C)=O)c1O | 50 to 52 °C |
| COc1ccc(C(=O)C=Cc2ccc(C#N)cc2)c(OC)c1OC | 132 to 133 °C |
| O=C(c1c(Cl)cccc1Cl)n1cnc(-c2ccccc2)c1 | 135 to 136 °C |
| NC(=S)c1ccc(CC(NC(=O)OCc2ccccc2)C(=O)NCC(=O)NCCC(=O)OCc2ccccc2)cc1 (racemic) | 150 to 151 °C |
| CCCc1nc2c(C(F)(F)F)cccc2c(O)c1C(=O)OCC | 98 °C |
| Oc1ccc(-c2cnc(NC(=S)Cc3ccccc3)c(Cc3ccccc3)n2)cc1 | 195 to 198 °C |
| Cc1ccc2c(C=O)c3ccccc3c(C=O)c2c1 | 150 to 152 °C |
| COc1cc(-c2csc(N(CCC3CCCCC3)C(=O)c3cc4ccccc4n3CC(=O)O)n2)c(OC)cc1C | 198 °C |
| CC1(C)NC(=O)N(c2ccc([N+](=O)[O-])cc2)C1=O | 176 to 177 °C |
| CC(=O)Nc1cc(NC(C)=O)cc([N+](=O)[O-])c1 | > 290 °C |
| CCCC[C@H](NC(=O)[C@H](CC(C)C)NC(=O)c1ccc(F)c(F)c1F)C(=O)CSCc1ccco1 | 101 to 102 °C |
| Cc1ccc(S(=O)(=O)OC[C@@H]2NC(=O)[C@@H]2N=[N+]=[N-])cc1 (relative stereo) | 77 to 78 °C |
| CCCn1ccc(=O)c(OC(=O)NCC(=O)OCC)c1C | 96 to 97 °C |
| CCCCCc1ccc(C(=O)Nc2ccc3cc(CN4CCCC4)cnc3c2C)cc1 | 121 °C |
| Cc1cc([N+](=O)[O-])c(NC(C)C)c([N+](=O)[O-])c1NC(C)C | 96 to 97 °C |
| O=[N+]([O-])c1cc(C(F)(F)F)cc2sc(=S)sc12 | 163 to 165 °C |
| CCn1nnnc1SCc1c(S(C)(=O)=O)ccc(C(=O)OC2=CC(=O)CCC2)c1Cl | 122 to 123 °C |
| COC(=O)c1cccc2c1CC(c1csc(-c3ccncc3)n1)C(=O)N2 (centres undefined) | 230 to 231 °C |
| CCNc1nc(SC)ncc1CNc1cc(OC)cc(OC)c1Cl | 116 to 118 °C |
| Clc1ncc(-c2ccccc2)cn1 | 130 to 132 °C |
| COc1cc(Nc2c(C#N)cnc3cc(-c4ccc(CNCCS(C)(=O)=O)cc4)ccc23)c(Cl)cc1Cl | 245 to 246 °C |
| CC(C)CC(=O)c1cc2ccncc2[nH]1 | 215 to 218 °C |
| O=C1NC(=O)C(c2cccc3ccsc23)O1 (centres undefined) | 130 to 132 °C |
| CC1CCN(C(=O)C2Cc3ccccc3N2c2ccc(=O)n(C)n2)C1 (centres undefined) | 150 to 154 °C |
| O=Cc1ccc2nccc(Oc3ccccc3)c2c1 | 112 to 115 °C |

| SMILES | melting point |
| --- | --- |
| COc1ccc(-c2nc3cc(F)ccc3s2)cc1OC(=O)c1ccc([N+](=O)[O-])cc1 | 198 °C |
| COc1cccc(C=Cc2ccccc2)c1O | 85 to 87 °C |
| CC(C)(C)CCCC(=O)Cn1ccnc1 | 45 to 46 °C |
| O=C(O)c1cccc2nc3n(c12)CCC3 | 310 to 312 °C |
| N#Cc1ccc(Nc2nc(Cc3c(Cl)cccc3Cl)cc(NCCN3CCCC3)n2)cc1 | 80 to 85 °C |
| O=C1c2sccc2-n2cncc2[C@@H]2CCCN12 | 228 to 230 °C |
| NC(=S)C1CCCc2c1ncc1c2CCCC1 (centres undefined) | 162 °C |
| O=C(Nc1ccc(N2CC3CCC3C2)nc1)c1cc2cc(C(F)(F)F)cnc2n1Cc1cccc(F)c1 (centres undefined) | 172 to 174 °C |
| COc1cc(CCC=O)ccc1OCc1nc(-c2ccccc2)oc1C | 80 to 81 °C |
| Cc1ccc(-c2nc3sc4ccccc4n3c2CC(=O)N(C)C)s1 | 216 to 218 °C |
| Cc1c(C#N)cc2ccc3c(c2c1Br)C(C)(C)C(=O)O3 | 235 to 237 °C |
| CN(C)Cc1coc(-c2cccc(C3=Nc4ccc(-n5cccc5)cc4NC(=O)C3)c2)n1 | 172 to 175 °C |
| NS(=O)(=O)N1CCC(F)(F)CC1 | 111 to 112 °C |
| CCOc1ccc(C(=O)NCc2ccc3c(c2)C(=O)N(C2CCC(=O)NC2=O)C3=O)nn1 (centres undefined) | 238 to 240 °C |
| COc1cccc2c1-c1c(OC(C)C)cccc1C2=O | 118 to 120 °C |
| Cn1c2ccccc2c2sc3ccccc3c21 | 175 to 176 °C |
| CCN1c2ncc(CCc3ccc(NS(C)(=O)=O)cc3)cc2C(=O)N(C)c2ccc(Cl)nc21 | 199 to 204 °C |
| CCn1cc(C(N)=O)c(=O)c2ccc(-c3ccccn3)cc21 | 245 to 246 °C |
| COc1ccc(Br)c(C(=O)N2CCN(S(=O)(=O)c3ccc(Cl)cc3)CC2)c1 | 188 °C |
| C=CC(CC(O)C(CC1CCCCC1)NC(=O)C(Cc1c[nH]cn1)NC(=O)C(Cc1ccccc1)NC(=O)OC(C)(C)C)C(C)C (centres undefined) | 161 °C |
| COc1ccc(CNc2ncnc3c2ncn3C2OC(CO)C(O)C2O)cc1 (centres undefined) | 148 °C |
| CCC1(CC)C(=O)N(c2ccc(C#N)c(C(F)(F)F)c2)C(=S)N1C | 126 to 127 °C |
| CS(=O)(=O)c1ccc(-c2cnn(-c3ccc(F)c(Cl)c3)c(=O)c2Cc2ccccc2)cc1 | 164 to 166 °C |
| CC(C)c1cc(Cl)cc(C(C)C)c1NC(=O)NS(=O)(=O)c1cccc(S(N)(=O)=O)c1 | 172 to 177 °C |
| CS(=O)(=O)c1ccc(C2=C(c3cccc(F)c3)CN(C3CC3)C2=O)cc1 | 179 to 180 °C |

| SMILES | melting point |
| --- | --- |
| CCCCC1c2sccc2CCN1CCNC(=O)c1ccc(NS(C)(=O)=O)cc1 (centres undefined) | 98 to 105 °C |
| COC(=O)c1ccc(Cl)cc1O | 27 to 30 °C |
| COc1cc(C(=O)NS(=O)(=O)Cc2ccccc2C(F)(F)F)nc(C)n1 | 120 to 122 °C |
| COCCCc1nc(C(F)F)ccc1C(=O)O | 86 to 87 °C |
| COC(=O)c1cn(C2CC2)c2c(OC)c(N3CCC(CN)(CF)C3)c(F)cc2c1=O (centres undefined) | 143 to 145 °C |
| CC1(C)Oc2cc3nc(S)[nH]c3cc2O1 | > 300 °C |
| CCCc1c(OCCOCCOc2ccc3ccc(OCC(=O)O)cc3c2C(C)=O)ccc(C(C)=O)c1O | 121 to 122 °C |
| CC(CC(=O)O)CC(=O)N(c1ccccc1)c1cc(C(C)(C)C)c(O)c(C(C)(C)C)c1 (centres undefined) | 153 to 155 °C |
| CCCCCCCCCCCCN(N)C(=O)NC | 73 to 75 °C |
| O=c1oc2ccccc2c2c1-c1ccccc1OC2 | 202 °C |
| COc1ccc(/C=C/c2ccccc2)c(OC)c1OC | 79 to 82 °C |
| Cc1ccc(-c2ccc(C(=O)c3ccccc3)cc2)cc1 | 124 to 125 °C |
| CCOC(=O)N(N)C(=O)c1ccccc1O | 126 °C |
| CCOC(=O)C(=O)Nc1ccc(Cl)c(C#N)c1 | 182 to 183 °C |
| COc1cc(OC)nc(-n2c(N)nc3cc(C)ccc32)n1 | > 300 °C |
| O=C(O)C1C(C=C(Cl)Cl)C12CCC2 (centres undefined) | 122 to 128 °C |
| Cn1cc(S(C)(=O)=O)c(=O)c2ccc(F)cc21 | 222 to 224 °C |
| CC1(C)Cc2c(C(=O)N3CCCC3)sc(Sc3ccccc3)c2-c2oncc21 | 49 to 52 °C |
| COc1ccc2c(c1)c(Cc1nc(-c3ccc(Br)cc3)cs1)c(C)n2C(=O)c1ccc(Cl)cc1 | 177 to 180 °C |
| CCCCCCCCCCCCCCCCCCC(=O)Nc1ccc(O)cc1 | 138 °C |
| O=C1CCC(N2C=Nc3ccccc3C2)C(=O)N1 (centres undefined) | 258 °C |
| Cc1ncc(OC2CCCCO2)c(=O)[nH]1 (centres undefined) | 149 to 151 °C |
| CN(CC1CCc2c(cccc2OCC(=O)O)C1)c1cnc(-c2ccccc2)c(-c2ccccc2)n1 (centres undefined) | 212 to 213 °C |
| Cc1[nH]cnc1C(c1ccccc1)c1ccccc1 | 198 to 204 °C |
